# Test results reported in patent US11618744B2, “Benzoimidazoles as prolyl hydroxylase inhibitors” (Janssen Pharmaceutica NV, priority 2008, dated 2023).
# System: Hep-3B cells
# Assay: Cellular assay: erythropoietin (EPO) secretion in Hep-3B cells
# Type: cell-based, human
# Settings: 24 h incubation, compound at 100 μM, percentage of EPO secretion of control compound 7-[(4-Chloro-phenyl)-(5-methyl-isoxazol-3-ylamino)-methyl]-quinolin-8-ol
row,Compound,Cellular % EPO Stimulation [%]
1,"O=C(O)c1cnn(-c2nc3ccccc3[nH]2)c1 [Example 1, 1-(1H-Benzoimidazol-2-yl)-1H-pyrazole-4-carboxylic acid]",7.1
2,"Cc1cc2nc(-n3cc(C(=O)O)cn3)[nH]c2cc1C [Example 5, 1-(5,6-Dimethyl-1H-benzoimidazol-2-yl)-1H-pyrazole-4-carboxylic acid]",2.1
3,"O=C(O)c1cnn(-c2nc3cc(-c4cccc(OCc5ccccc5Cl)c4)ccc3[nH]2)c1 [Example 13, 1-{5-[3-(2-Chloro-benzyloxy)-phenyl]-1H-benzoimidazol-2-yl}-1H-pyrazole-4-carboxylic acid]",18
4,"O=C(O)c1cnn(-c2nc3cc(-c4cccc(C(F)(F)F)c4)ccc3[nH]2)c1 [Example 17, 1-[5-(3-Trifluoromethyl-phenyl)-1H-benzoimidazol-2-yl]-1H-pyrazole-4-carboxylic acid]",5.8
5,"Cc1nn(-c2nc3cc(Cl)c(Cl)cc3[nH]2)c(C)c1C(=O)O [Example 22, 1-(5,6-Dichloro-1H-benzoimidazol-2-yl)-3,5-dimethyl-1H-pyrazole-4-carboxylic acid]",0.47
